Experimental data from patent US10597388B2, “Pyridazinone herbicides” (FMC CORPORATION, priority 2014, dated 2020).

Columns and labels:
Format in all cases: in vivo
[1] = test system: foxtail, giant (giant foxtail, Setaria faberii); experiment: Test A greenhouse herbicide test, pre- and postemergence
Method in brief: (§1)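 Seeds in loam–sand blend received a preemergence directed soil spray; plants at 2–10 cm, one- to two-leaf stage, received postemergence sprays. Compounds in a non-phytotoxic solvent with surfactant. After about 10 d in a greenhouse, injury rated visually versus untreated controls on a 0–100 scale (100 = complete control).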

[2] = test system: wheat (Triticum aestivum); experiment: as above; conditions: Postemergence
Method in brief: as §1

[3] = test system: pigweed (Amaranthus retroflexus); experiment: as above
Method in brief: as §1

[4] = test system: ryegrass, Italian (Italian ryegrass, Lolium multiflorum); experiment: as above
Method in brief: as §1

corn (Zea mays) = experiment: as above; conditions: Postemergence
Method in brief: as §1

[5] = test system: ragweed (common ragweed, Ambrosia elatior); experiment: as above
Method in brief: as §1

[6] = test system: barnyardgrass (Echinochloa crus-galli); experiment: as above
Method in brief: as §1

kochia (Kochia scoparia) [7] = experiment: as above
Method in brief: as §1

[8] = test system: oat, wild (wild oat, Avena fatua); experiment: Test C greenhouse herbicide test, postemergence
Method in brief: (§2)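 Plants grown in potting mix of peat moss, vermiculite, wetting agent and starter nutrients were sprayed postemergence at 2 to 18 cm height (1- to 4-leaf stage). After 13 to 15 d in the greenhouse, injury was visually rated against untreated controls on a 0–100 scale (0 no effect, 100 complete control).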

kochia (Kochia scoparia) [9] = experiment: Test C greenhouse herbicide test, postemergence
Method in brief: as §2

[10] = test system: galium (catchweed bedstraw, Galium aparine); experiment: Test A greenhouse herbicide test, postemergence
Method in brief: (§3)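 Pot-grown plants (loam soil/sand blend), 2–10 cm tall at the one- to two-leaf stage, received postemergence sprays of formulated test chemical. After about 10 d in the greenhouse, injury was rated visually against untreated controls on a 0 (no effect) to 100 (complete control) scale.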

[11] = test system: blackgrass (Alopecurus myosuroides); experiment: Test A greenhouse herbicide test, postemergence
Method in brief: as §3

[12] = Postemergence, 125 g ai/ha, 0 to 100 scale where 0 is no effect and 100 is complete control
[13] = Postemergence, 500 g ai/ha, 0 to 100 scale, 0 is no effect, 100 is complete control
[14] = Preemergence, 125 g ai/ha, 0 to 100 scale where 0 is no effect and 100 is complete control
[15] = Preemergence, 500 g ai/ha, 0 to 100 scale, 0 no effect, 100 complete control
[16] = 125 g ai/ha, 0 to 100 scale where 0 is no effect and 100 is complete control
[17] = 500 g ai/ha, 0 to 100 scale, 0 is no effect, 100 is complete control
[18] = Postemergence, 31 g ai/ha, 0 to 100 scale (0 no effect, 100 complete control)
[19] = Postemergence, 125 g ai/ha, scale 0 to 100, 0 is no effect, 100 is complete control
[20] = Postemergence, 250 g ai/ha, scale 0 to 100, 0 no effect, 100 complete control, 13 to 15 d
[21] = postemergence, 62 g ai/ha, scale 0 to 100, 0 no effect, 100 complete control

## Cc1nn(C)c(=O)c(-c2c(C)sc3ccccc23)c1O [Compound 65]
[1]; [12]
  Plant response rating, Foxtail, Giant: 20
[1]; [13]
  Foxtail, Giant plant response rating: 90
[1]; [14]
  Foxtail, Giant plant response rating: 60
[1]; [15]
  Plant response rating, Foxtail, Giant: 90
[2]; [16]
  Plant response rating, Wheat: 0
[2]; [17]
  Wheat plant response rating: 0
[3]; [12]
  Plant response rating, Pigweed: 80
[3]; [13]
  Pigweed plant response rating: 90
[3]; [14]
  Pigweed plant response rating: 100
[3]; [15]
  Plant response rating, Pigweed: 100
[4]; [12]
  Plant response rating, Ryegrass, Italian: 90
[4]; [13]
  Ryegrass, Italian plant response rating: 100
[4]; [14]
  Ryegrass, Italian plant response rating: 90
[4]; [15]
  Plant response rating, Ryegrass, Italian: 100
Corn (Zea mays); [16]
  Plant response rating, Corn: 0
Corn (Zea mays); [17]
  Corn plant response rating: 0
[5]; [12]
  Plant response rating, Ragweed: 50
[5]; [13]
  Ragweed plant response rating: 90
[5]; [14]
  Ragweed plant response rating: 70
[5]; [15]
  Plant response rating, Ragweed: 80
[6]; [12]
  Plant response rating, Barnyardgrass: 20
[6]; [13]
  Barnyardgrass plant response rating: 90
[6]; [14]
  Barnyardgrass plant response rating: 60
[6]; [15]
  Plant response rating, Barnyardgrass: 90
Kochia (Kochia scoparia) [7]; [12]
  Plant response rating, Kochia: 90
Kochia (Kochia scoparia) [7]; [13]
  Kochia plant response rating: 90
Kochia (Kochia scoparia) [7]; [14]
  Kochia plant response rating: 60
Kochia (Kochia scoparia) [7]; [15]
  Plant response rating, Kochia: 90
[8]; [18]
  Oat, Wild plant response rating: 25
[8]; [19]
  Plant response rating, Oat, Wild: 50
[8]; [20]
  Plant response rating, Oat, Wild: 70
[8]; [21]
  Oat, Wild plant response rating: 35
Kochia (Kochia scoparia) [9]; [18]
  Kochia plant response rating: 90
Kochia (Kochia scoparia) [9]; [19]
  Plant response rating, Kochia: 90
Kochia (Kochia scoparia) [9]; [20]
  Plant response rating, Kochia: 100
Kochia (Kochia scoparia) [9]; [21]
  Kochia plant response rating: 90
[10]; [16]
  Plant response rating, Galium: 90
[10]; [17]
  Galium plant response rating: 100
[11]; [16]
  Plant response rating, Blackgrass: 20
[11]; [17]
  Blackgrass plant response rating: 70
